In patent US10041922B2, “Biochemistry based ocular toxicity assay” (priority 2015, dated 2018):
Like-named read-outs stand apart in the source and are kept apart here.

Key:
[1] = Water insoluble assay (Delta): optical response (OD700) of the hydrophobic polymer Δ reagent, irritation score; details: TP/FN/TN based on comparison with the in vivo test results
Experimental: Triplicate Δ Test and Δ Control cells are labeled as follows: Test Cell 40 μL; Control Cell 40 μL; Test Cell Standard A; Test Cell Standard B. The cells are placed in a rack. 40 μL aliquots of test sample are added to the three Δ positive cells. 40 μL of Standard A+ and 40 μL of Standard B+ are added to the respective triplicate cells. 40 μL of test substance is aliquoted to the True Negative cell. All test and standard cells (A+, B+, and control cells) are filled with 2 mL of Δ reagent. […] 2 mL of Δ reagent is added to a naïve Δ test cell to blank a spectrophotometer. The OD700 value is measured for all test and standard cells. Where the substance is colored or opaque, 2 mL of Δ reagent are added to a naïve control Δ cell, and the OD700 value is measured for all control cells.
Test Cell values are recorded. Control cell values are recorded. Where samples are colored or opaque Net OD700 values are obtained by subtracting the average of the control cell OD700 value from the average of the test cell OD700 value. The average of positive controls A+ and B+ are calculated.
For each unknown, an irritancy classification is ascertained by using the closest positive cell value. The highest measured value is used. The standard with the closest OD value is identified as the Closest Standard Value. The Measured Value is divided by the mean of the three Closest Standard Values. A multiplier is applied to the quotient corresponding to the designation of the Closest Standard Value. If the Closest Standard Value is A+, the multiplier is 8. […] The resulting value is the irritation score for the sample. The highest score is used to predict the irritancy of the sample.

[2] = tested on: water-soluble protein/glycoprotein test matrix; experiment: Water soluble assay (Alpha): optical response (OD400) of the macromolecule active agent, irritation score; details: TP/FN/TN based on comparison with the in vivo test results
Experimental: (§1) The macromolecule based test matrix behaves as an active agent in the assay and is capable of undergoing a measurable change when exposed to an ocular irritant. The measurable change may be a change in appearance, which can be measured by spectrophotometry. One or more standards of known toxicity are added to at least a second aliquot of the water-soluble matrix to form control solutions, to generate a calibration curve. The measurable change induced by the test substance can be compared to the measurable change induced by the standards to make an ocular toxicity prediction. For instance, test substances that induce an equal or greater reaction than a known irritant may be classified as ocular irritants. In some embodiments, the pH of the control solution may be adjusted to match the pH of the test solution, thereby controlling for pH effects and increasing accuracy. In some embodiments, a test substance which is at least partially water insoluble is added to an aliquot of a reagent comprised of one or more hydrophobic organic polymers capable of undergoing a measurable change in response to water insoluble ocular irritants. The measurable change may be a change in appearance, which can be measured by spectrophotometry. One or more standards of known toxicity are added to at least a second aliquot of the reagent to generate a calibration curve. The measurable change induced by the test substance can be compared to the measurable change induced by the standards to make an ocular toxicity prediction in the manner described above. Water-soluble and water-insoluble assays can be performed in parallel, or multiplexed, to rapidly and efficiently predict the ocular toxicity of a wide range of compounds.
(§2) In some embodiments related to the water-soluble sub-assay, the test matrix is a water-soluble active agent comprising one or more macromolecules in aqueous solution. […] In some embodiments, the water-soluble active agent comprises at least one of isoleucine, glutamine, leucine, lysine, tyrosine, valine, proline, methione, fumerase, serine, urocanate, triacyl glycerol, globulin, gammaglobulin, mucopolysaccharide, albumin, carbohydrates, lipids, saponins, conalbumin, ovalbumin, ovomucoid, mucin, egg white fractions, plant extract, cell extract, milk fractions, red blood cell extract, muscle extract, gelatin fractions, heme, aspartate, lignocerate, stearate, linolenate, benzoate, carnitine, palmate, coenzyme A, and urea. The molecules and macromolecules can be derived as crude cell or tissue extracts, or obtained individually or in part and reconstituted.
(§3) A third pretest is performed to measure the buffering power of the unknown test substance. […] Next, 125 μL or mg of test substance is added to the test tube. The pH of the mixture is recorded. The final pH is compared to the starting pH and the absolute value of the change in pH is applied as an exponent to base 10 to generate a buffering score. These pretest results are used to select specific procedures to further analyze the test substance. Compounds with a buffering score between 5 and 2 are within the MA α domain. Compounds outside of the MA α domain with buffering scores less than 100 are within the HMA α domain. Substances with a buffering score of at least 100 are within the H-test domain.
(§4) The MA α procedure is used to test unknowns that have a small buffering capacity. The MA α procedure predicts a substance's capacity for indirect denaturation of molecules across a membrane via osmotic effects, such as osmotic effects across the corneal epithelium and stroma which can damage the cornea. The MA α assay further analyzes Potential to damage tissue via excessive oxidation and reactivity, which can occur at the epithelium, stroma, conjunctiva and iris.

eye = details: cited from earlier work
[3] = tested on: water-soluble protein/glycoprotein test matrix
Experimental: as §1, §2, §3, §4

[4] = category of irritant from published in vivo irritancy tests (GHS)

## BrCCCCCCBr [1,6-Dibromohexane]
[1]
  water insoluble assay (Delta), parenthetical call versus in vivo: (TN)
[2]
  Water soluble assay (Alpha), parenthetical call versus in vivo: (TN)
eye; [4]
  in vivo: Not Classified

## ClCCCCBr [1-Bromo-4-chlorobutane]
[1]
  water insoluble assay (Delta), parenthetical call versus in vivo: TN)
[2]
  Water soluble assay (Alpha), parenthetical call versus in vivo: (TN)
eye; [4]
  in vivo: Not Classified

## CCCCCCO [1-Hexanol]
[1]
  water insoluble assay (Delta), parenthetical call versus in vivo: (FN)
[2]
  Water soluble assay (Alpha), parenthetical call versus in vivo: (TP)
eye; [4]
  in vivo: Category 2A

## CCC(C)(C)C(=O)O [2,2-Dimethyl Butanoic Acid]
[1]
  water insoluble assay (Delta), parenthetical call versus in vivo: (FN)
[2]
  Water soluble assay (Alpha), parenthetical call versus in vivo: (TP)

## CCCCC(CC)COC(=O)c1ccc(N(C)C)cc1 (stereo not shown) [2-Ethylhexyl 4-(dimethylamino)benzoate]
[1]
  water insoluble assay (Delta), parenthetical call versus in vivo: (TN)
[2]
  Water soluble assay (Alpha), parenthetical call versus in vivo: (TN)
eye; [4]
  in vivo: Not Classified

## CC(C)O [2-Propanol]
[1]
  water insoluble assay (Delta), parenthetical call versus in vivo: (FN)
[2]
  Water soluble assay (Alpha), parenthetical call versus in vivo: (TP)
eye; [4]
  in vivo: Category 2A

## O=C=Nc1ccc(Cl)c(Cl)c1 [3,4-Dichlorophenyl isocyanate]
[1]
  water insoluble assay (Delta), parenthetical call versus in vivo: (FN)
[2]
  Water soluble assay (Alpha), parenthetical call versus in vivo: (TP)

## CC(C)(C)CC(C)(C)c1ccc(O)cc1 [4-(1,1,3,3-Tetramethylbutyl)phenol]
[1]
  water insoluble assay (Delta), parenthetical call versus in vivo: (FN)
[2]
  Water soluble assay (Alpha), parenthetical call versus in vivo: (TP)

## OCc1ccccc1 [Benzyl Alcohol]
[1]
  water insoluble assay (Delta), parenthetical call versus in vivo: (TP)
[2]
  Water soluble assay (Alpha), parenthetical call versus in vivo: (TP)

## CCN(CC)CCO [Diethylethanolamine]
[3]
  Water soluble assay (Alpha): 53.54
  Water soluble assay (Alpha), parenthetical call versus in vivo: (TP)
eye; rabbit, in vivo
  in vivo: Category 1

## CCCCCCCCCCCC [Dodecane]
[1]
  water insoluble assay (Delta), parenthetical call versus in vivo: (TN)
[2]
  Water soluble assay (Alpha), parenthetical call versus in vivo: (TN)
eye; [4]
  in vivo: Not Classified

## NCCO [Ethanolamine]
[1]
  water insoluble assay (Delta), parenthetical call versus in vivo: (FN)
[2]
  Water soluble assay (Alpha), parenthetical call versus in vivo: (TP)
eye; [4]
  in vivo: Category 2B

## CCOC(=O)C(C)C(C)=O (stereo not shown) [Ethyl 2-methyl]
[3]
  Water soluble assay (Alpha): 10.9
  Water soluble assay (Alpha), parenthetical call versus in vivo: (FN)
eye; rabbit, in vivo
  in vivo: Category 2B

## CCOC(=O)C(C)(C)O [Ethyl a-hydroxyisobutyrate]
[3]
  Water soluble assay (Alpha): >60
  Water soluble assay (Alpha), parenthetical call versus in vivo: (TP)
eye; rabbit, in vivo
  in vivo: Category 1

## C=CC(=O)OCCO [Hydroxyethyl acrylate]
[2]
  Water soluble assay (Alpha), parenthetical call versus in vivo: (TP)

## CO[Si](CCCNCCC[Si](OC)(OC)OC)(OC)OC [Organofunctional Silane]
[3]
  Water soluble assay (Alpha): 25.53
  Water soluble assay (Alpha), parenthetical call versus in vivo: (TP)
eye; rabbit, in vivo
  in vivo: Category 1

## c1ccncc1 [Pyridine]
eye; rabbit, in vivo
  in vivo: Category 1

## O=C(Cl)C(Cl)(Cl)Cl [Trichloroacetyl chloride]
[1]
  water insoluble assay (Delta), parenthetical call versus in vivo: (TP)
[2]
  Water soluble assay (Alpha), parenthetical call versus in vivo: (TP)

## CCCCCCCCN [n-Octylamine]
[1]
  water insoluble assay (Delta), parenthetical call versus in vivo: (TP)
[2]
  Water soluble assay (Alpha), parenthetical call versus in vivo: (TP)

## CN(C)CCCCCCN(C)C [tetramethyl-1,6 hexanediame]
[1]
  water insoluble assay (Delta), parenthetical call versus in vivo: (TP)
[2]
  Water soluble assay (Alpha), parenthetical call versus in vivo: (TP)
